Laboratory results as given in the NIST ThermoML archive (doi:10.1016/j.jct.2008.11.003).
± gives the expanded uncertainty stated by the source.

Legend:
[1] = 101.33 kPa, Liquid; for mass density: Vibrating tube method; for viscosity: Cone and plate viscometry
[2] = refractive index (Na D-line) (dimensionless); conditions: 101.33 kPa, Liquid, Standard Abbe refractometry

SMILES	mass density ([1]; 293.15 K) [kg/m3]	viscosity ([1]; 298.2 K) [mPa·s]	mass density ([1]; 303.15 K) [kg/m3]	viscosity ([1]; 303.2 K) [mPa·s]	viscosity ([1]; 308.2 K) [mPa·s]	mass density ([1]; 313.15 K) [kg/m3]	viscosity ([1]; 313.2 K) [mPa·s]	viscosity ([1]; 318.2 K) [mPa·s]	mass density ([1]; 323.15 K) [kg/m3]	viscosity ([1]; 323.2 K) [mPa·s]	viscosity ([1]; 328.2 K) [mPa·s]	mass density ([1]; 333.15 K) [kg/m3]	viscosity ([1]; 333.2 K) [mPa·s]	viscosity ([1]; 338.2 K) [mPa·s]	mass density ([1]; 343.15 K) [kg/m3]	viscosity ([1]; 343.2 K) [mPa·s]	viscosity ([1]; 348.2 K) [mPa·s]	mass density ([1]; 353.15 K) [kg/m3]	mass density ([1]; 363.15 K) [kg/m3]	refractive index ([2]; 293.15 K)	other results
CC(=O)[O-].C[NH+](CCO)CCO [N-methyldiethanolammonium acetate]	1141.42 ± 11	198.91 ± 40	1132.76 ± 11	144.69 ± 29	108.33 ± 22	1125.85 ± 11	83.56 ± 17	64.12 ± 13	1118.75 ± 11	50.96 ± 10	40.45 ± 8.1	1111.46 ± 11	32.15 ± 6.5	25.98 ± 5.2	1103.98 ± 11	22.32 ± 4.5	18.45 ± 3.7	1096.28 ± 11	1088.36 ± 11	1.43302 ± 0.05	refractive index ([2]; 298.15 K): 1.43215 ± 0.05; refractive index ([2]; 303.15 K): 1.43122 ± 0.05; refractive index ([2]; 308.15 K): 1.43023 ± 0.05; refractive index ([2]; 313.15 K): 1.42922 ± 0.05; refractive index ([2]; 318.15 K): 1.42813 ± 0.05; refractive index ([2]; 323.15 K): 1.42702 ± 0.05; refractive index ([2]; 328.15 K): 1.42583 ± 0.05; refractive index ([2]; 333.15 K): 1.42462 ± 0.05
CC(O)C(=O)[O-].[NH3+]CCO (stereo not given) [2-hydroxyethylammonium lactate]	1204.52 ± 11	254.25 ± 52	1197.84 ± 11	181.45 ± 37	133.32 ± 27	1191.86 ± 11	100.02 ± 20	76.88 ± 15	1185.78 ± 11	60.18 ± 12	48.12 ± 9.7	1179.64 ± 11	38.12 ± 7.7	31.02 ± 6.2	1173.45 ± 11	24.98 ± 5	21.26 ± 4.3	1167.19 ± 11	1160.86 ± 11	1.43858 ± 0.05	refractive index ([2]; 298.15 K): 1.43758 ± 0.05; refractive index ([2]; 303.15 K): 1.43658 ± 0.05; refractive index ([2]; 308.15 K): 1.43557 ± 0.05; refractive index ([2]; 313.15 K): 1.43455 ± 0.05; refractive index ([2]; 318.15 K): 1.43354 ± 0.05; refractive index ([2]; 323.15 K): 1.43252 ± 0.05; refractive index ([2]; 328.15 K): 1.43148 ± 0.05; refractive index ([2]; 333.15 K): 1.43043 ± 0.05
CC(O)C(=O)O.OCCNCCO [diethanolamine lactate]	1206.34 ± 11	288.56 ± 59	1198.77 ± 11	204.15 ± 41	148.54 ± 30	1192.47 ± 11	110.25 ± 22	84.34 ± 17	1186.14 ± 11	65.45 ± 13	51.78 ± 10	1179.73 ± 11	42.15 ± 8.5	33.45 ± 6.7	1173.25 ± 11	27.15 ± 5.5	22.45 ± 4.5	1166.69 ± 11	1160.03 ± 11	1.44156 ± 0.05	refractive index ([2]; 298.15 K): 1.44142 ± 0.05; refractive index ([2]; 303.15 K): 1.44109 ± 0.05; refractive index ([2]; 308.15 K): 1.44056 ± 0.05; refractive index ([2]; 313.15 K): 1.43983 ± 0.05; refractive index ([2]; 318.15 K): 1.43891 ± 0.05; refractive index ([2]; 323.15 K): 1.43776 ± 0.05; refractive index ([2]; 328.15 K): 1.43642 ± 0.05; refractive index ([2]; 333.15 K): 1.43489 ± 0.05
CC(=O)[O-].[NH3+]CCO [2-hydroxyethylammonium acetate]	1148.66 ± 11	313.15 ± 64	1143.39 ± 11	224.68 ± 46	162.91 ± 33	1138.02 ± 11	120.26 ± 24	92.56 ± 19	1132.52 ± 11	70.68 ± 14	56.56 ± 11	1126.94 ± 11	43.91 ± 8.8	34.98 ± 7	1121.26 ± 11	29.04 ± 5.8	24.05 ± 4.8	1115.47 ± 11	1109.55 ± 11	1.43775 ± 0.05	refractive index ([2]; 298.15 K): 1.43682 ± 0.05; refractive index ([2]; 303.15 K): 1.43593 ± 0.05; refractive index ([2]; 308.15 K): 1.4351 ± 0.05; refractive index ([2]; 313.15 K): 1.43428 ± 0.05; refractive index ([2]; 318.15 K): 1.43356 ± 0.05; refractive index ([2]; 323.15 K): 1.43287 ± 0.05; refractive index ([2]; 328.15 K): 1.43223 ± 0.05; refractive index ([2]; 333.15 K): 1.43164 ± 0.05
CC(=O)[O-].OCC[NH2+]CCO [2,2'-azanediylbis(ethanol) acetate]	1173.85 ± 11	566.89 ± 120	1166.39 ± 11	376.59 ± 77	260.02 ± 53	1160.12 ± 11	183.97 ± 37	136.06 ± 28	1153.96 ± 11	101.06 ± 20	78.35 ± 16	1147.64 ± 11	60.25 ± 12	48.79 ± 9.8	1141.22 ± 11	38.65 ± 7.8	31.51 ± 6.3	1134.66 ± 11	1127.97 ± 11	1.43431 ± 0.05	refractive index ([2]; 298.15 K): 1.43338 ± 0.05; refractive index ([2]; 303.15 K): 1.43238 ± 0.05; refractive index ([2]; 308.15 K): 1.43137 ± 0.05; refractive index ([2]; 313.15 K): 1.43029 ± 0.05; refractive index ([2]; 318.15 K): 1.42916 ± 0.05; refractive index ([2]; 323.15 K): 1.42798 ± 0.05; refractive index ([2]; 328.15 K): 1.42673 ± 0.05; refractive index ([2]; 333.15 K): 1.42547 ± 0.05
